Results taken from patent US10793563B2, “GCN2 inhibitors and uses thereof” (Merck Patent GmbH, priority 2018, dated 2020).

Key:
GCN2 kinase = GCN2 kinase (Homo sapiens (Human), UniProt Q9P2K8); assay: GCN2 Enzyme Inhibition Assay (Transcreener ADP2 fluorescence polarization); type: biochemical; details: 280 μM ATP, 200 μM (RS)7 peptide, 4 nM GCN2, 25° C.; for Ki: Ki(app)
Summary of the method: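 At 25 °C, GCN2 kinase (typical final concentration 4 nM) and (RS)7 peptide in Tris-HCl pH 7.5 buffer with MgCl2, NaCl and DTT were preincubated with compound for 10 min, then ATP was added for a 1 h reaction. ADP was read by FP with antibody/Alexa633 tracer. Non-linear tight-binding analysis gave IC50 and apparent Ki.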

[1] = molecular target: intracellular GCN2 (phosphorylation of the GCN2 substrate eIF2α) (Homo sapiens (Human), UniProt Q9P2K8); assay: GCN2 Cellular Inhibition Assay (AlphaScreen SureFire P-eIF2α Ser51, borrelidin-treated U2OS cells); type: cell-based; details: 10 μM borrelidin, 1 h, phosphorylated eIF2α Ser51, read-out: GCN2 Biomarker (IC50)
Sequence of intracellular GCN2 (phosphorylation of the GCN2 substrate eIF2α) (Q9P2K8 whole entry): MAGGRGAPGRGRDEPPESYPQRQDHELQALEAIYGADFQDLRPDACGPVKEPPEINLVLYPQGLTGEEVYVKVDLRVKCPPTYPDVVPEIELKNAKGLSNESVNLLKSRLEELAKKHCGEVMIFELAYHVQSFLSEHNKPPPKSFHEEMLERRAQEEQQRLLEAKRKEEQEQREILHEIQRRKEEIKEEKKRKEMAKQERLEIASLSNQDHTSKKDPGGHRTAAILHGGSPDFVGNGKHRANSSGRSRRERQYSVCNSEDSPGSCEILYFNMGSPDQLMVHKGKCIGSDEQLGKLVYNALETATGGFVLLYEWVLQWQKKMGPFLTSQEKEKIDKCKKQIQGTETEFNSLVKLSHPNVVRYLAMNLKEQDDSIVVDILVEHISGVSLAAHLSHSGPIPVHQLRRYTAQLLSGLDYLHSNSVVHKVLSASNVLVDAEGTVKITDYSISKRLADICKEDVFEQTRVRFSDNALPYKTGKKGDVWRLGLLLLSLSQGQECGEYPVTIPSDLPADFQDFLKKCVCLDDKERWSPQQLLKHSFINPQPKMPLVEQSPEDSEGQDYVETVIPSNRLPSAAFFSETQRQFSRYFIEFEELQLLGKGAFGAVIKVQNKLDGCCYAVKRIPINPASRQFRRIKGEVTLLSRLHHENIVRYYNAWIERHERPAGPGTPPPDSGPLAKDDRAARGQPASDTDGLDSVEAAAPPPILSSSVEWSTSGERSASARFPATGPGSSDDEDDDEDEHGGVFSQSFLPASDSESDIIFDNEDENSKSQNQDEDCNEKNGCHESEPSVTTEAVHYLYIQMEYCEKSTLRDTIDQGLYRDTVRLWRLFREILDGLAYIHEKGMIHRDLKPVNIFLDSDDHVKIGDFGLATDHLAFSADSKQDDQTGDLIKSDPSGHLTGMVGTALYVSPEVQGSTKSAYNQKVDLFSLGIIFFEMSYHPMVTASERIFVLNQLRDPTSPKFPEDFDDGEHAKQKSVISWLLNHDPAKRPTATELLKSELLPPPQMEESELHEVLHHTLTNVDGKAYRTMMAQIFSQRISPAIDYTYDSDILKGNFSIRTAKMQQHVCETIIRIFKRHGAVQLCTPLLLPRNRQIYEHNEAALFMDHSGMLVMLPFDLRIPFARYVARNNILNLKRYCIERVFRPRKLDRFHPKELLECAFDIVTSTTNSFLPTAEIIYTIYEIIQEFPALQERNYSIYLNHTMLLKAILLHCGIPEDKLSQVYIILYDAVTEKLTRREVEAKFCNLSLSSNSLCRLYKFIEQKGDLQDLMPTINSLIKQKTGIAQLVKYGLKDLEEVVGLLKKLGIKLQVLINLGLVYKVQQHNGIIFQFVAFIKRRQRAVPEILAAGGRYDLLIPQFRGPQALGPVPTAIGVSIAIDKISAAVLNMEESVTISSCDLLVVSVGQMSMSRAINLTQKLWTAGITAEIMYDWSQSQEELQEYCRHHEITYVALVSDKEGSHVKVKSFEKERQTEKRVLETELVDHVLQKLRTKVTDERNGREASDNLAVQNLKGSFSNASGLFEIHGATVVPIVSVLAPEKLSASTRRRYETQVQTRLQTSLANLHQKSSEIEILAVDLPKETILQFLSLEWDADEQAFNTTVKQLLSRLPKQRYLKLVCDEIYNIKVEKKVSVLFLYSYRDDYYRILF
Summary of the method: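 Phospho-eIF2α (Ser51) measured by AlphaScreen SureFire in lysates of U2OS cells stimulated 1 h at 37 °C with 10 μM borrelidin alongside compound, 4-fold dilutions from 40 μM. Inhibition expressed as percent relative to borrelidin-alone controls.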

Sequence of GCN2 kinase (Q9P2K8 whole entry): as above

IC50 (GCN2 kinase) [nM]	IC50 [1] [nM]	Ki (GCN2 kinase) [nM]	Compound
< 10	< 500	–	CC(C)(C)c1ncc(CN2CCN(c3ccnc(-c4cnc5ccc(C(F)(F)F)cn45)n3)CC2c2cn[nH]c2)[nH]1 (centres unmarked) [I-373, 3-(4-(4-((2-(tert-butyl)-1H-imidazol-5-yl)methyl)-3-(1H-pyrazol-4-yl)piperazin-1-yl)pyrimidin-2-yl)-6-(trifluoromethyl)imidazo[1,2-a]pyridine]
10 to 100	< 500	–	c1ccc(Oc2ccc3ncc(-c4nccc(N5CCCC(c6cn[nH]c6)C5)n4)n3c2)cc1 (centres unmarked) [I-329, 2-{6-phenoxyimidazo[1,2-a]pyridin-3-yl}-4-[3-(1H-pyrazol-4-yl)piperidin-1-yl]pyrimidine]
10 to 100	500 to 5000	–	CC(NS(C)(=O)=O)C1CN(c2ccnc(-c3cnc4ccc(C(F)(F)F)cn34)n2)CCO1 (centres unmarked) [I-327, N-(1-(4-(2-(6-(trifluoromethyl)imidazo[1,2-a]pyridin-3-yl)pyrimidin-4-yl)morpholin-2-yl)ethyl)methanesulfonamide]
10 to 100	< 500	–	Cc1[nH]ncc1[C@H]1C[C@@H](N=S(C)(C)=O)CN(c2ccnc(-c3cnc4ccc(C(F)(F)F)cn34)n2)C1 [I-342, dimethyl(((3R,5R)-5-(5-methyl-1H-pyrazol-4-yl)-1-(2-(6-(trifluoromethyl)imidazo[1,2-a]pyridin-3-yl)pyrimidin-4-yl)piperidin-3-yl)imino)-λ6-sulfanone]
10 to 100	500 to 5000	–	Cc1cnc(N2C[C@@H](c3cn[nH]c3C)O[C@@H](C)C2)nc1-c1cnc2ccc(Cl)cn12 [I-203, (2S,6R)-4-(4-(6-chloroimidazo[1,2-a]pyridin-3-yl)-5-methylpyrimidin-2-yl)-2-methyl-6-(5-methyl-1H-pyrazol-4-yl)morpholine]
10 to 100	> 5000	–	NS(=O)(=O)C1CCCN(c2ccnc(-c3cnc4ccc(C(F)(F)F)cn34)n2)C1 (centres unmarked) [I-242, 1-(2-(6-(trifluoromethyl)imidazo[1,2-a]pyridin-3-yl)pyrimidin-4-yl)piperidine-3-sulfonamide]
10 to 100	500 to 5000	–	Cc1cnc(N2C[C@@H](C)O[C@@H](c3cn[nH]c3C)C2)nc1-c1cnc2ccc(Cl)cn12 [I-204, (2R,6S)-4-(4-(6-chloroimidazo[1,2-a]pyridin-3-yl)-5-methylpyrimidin-2-yl)-2-methyl-6-(5-methyl-1H-pyrazol-4-yl)morpholine]
< 10	< 500	–	FC(F)(F)c1ccc2ncc(-c3nccc(N4CCN(Cc5cnon5)C(c5cn[nH]c5)C4)n3)n2c1 (centres unmarked) [I-461, 4-{4-[(1,2,5-oxadiazol-3-yl)methyl]-3-(1H-pyrazol-4-yl)piperazin-1-yl}-2-[6-(trifluoromethyl)imidazo[1,2-a]pyridin-3-yl]pyrimidine]
10 to 100	500 to 5000	–	C[C@@H]1C[C@H](N=S(C)(C)=O)CN(c2ccnc(-c3cnc4ccc(OC(F)(F)F)cn34)n2)C1 [I-290, dimethyl(((3 S,5R)-5-methyl-1-(2-(6-(trifluoromethoxy)imidazo[1,2-a]pyridin-3-yl)pyrimidin-4-yl)piperidin-3-yl)imino)-λ6-sulfanone]
–	> 5000	< 10	CP(C)(=O)C1CC(c2cn[nH]c2)CN(c2ccnc(-c3cnc4ccc(Cl)cn34)n2)C1 (centres unmarked) [I-29, 6-Chloro-3-[4-[3-dimethylphosphoryl-5-(1H-pyrazol-4-yl)-1-piperidyl]pyrimidin-2-yl]imidazo[1,2-a]pyridine]
–	< 500	< 10	NC(=O)[C@H]1CCCN(c2ccnc(-c3cnc4cc(F)c(Cl)cn34)n2)C1 [I-48, (3S)-1-[2-(6-Chloro-7-fluoro-imidazo[1,2-a]pyridin-3-yl)pyrimidin-4-yl]piperidine-3-carboxamide]
10 to 100	500 to 5000	–	O=C(O)C1(C2CCCN(c3ccnc(-c4cnc5ccc(Cl)cn45)n3)C2)CC1 (centres unmarked) [I-297, 1-(1-(2-(6-chloroimidazo[1,2-a]pyridin-3-yl)pyrimidin-4-yl)piperidin-3-yl)cyclopropane-1-carboxylic acid]
< 10	< 500	–	N#Cc1ccc2ncc(-c3nccc(N4CCOC(c5cn[nH]c5C(F)F)C4)n3)n2c1 (centres unmarked) [I-193, 3-(4-(2-(5-(difluoromethyl)-1H-pyrazol-4-yl)morpholino)pyrimidin-2-yl)imidazo[1,2-a]pyridine-6-carbonitrile]
–	< 500	< 10	Cc1noc([C@H]2CN(c3ccnc(-c4cnc5ccc(C(F)(F)F)cn45)n3)C[C@@H](C)O2)n1 (stereo in doubt) [I-90, 2-methyl-6-(3-methyl-1,2,4-oxadiazol-5-yl)-4-{2-[6-(trifluoromethyl)imidazo[1,2-a]pyridin-3-yl]pyrimidin-4-yl}morpholine]
10 to 100	500 to 5000	–	CC1(C)CN(c2ccnc(-c3cnc4ccc(C(F)(F)F)cn34)n2)CCN1C(=O)C1CCC(=O)CC1 [I-492, 4-(2,2-dimethyl-4-(2-(6-(trifluoromethyl)imidazo[1,2-a]pyridin-3-yl)pyrimidin-4-yl)piperazine-1-carbonyl)cyclohexan-1-one]
10 to 100	500 to 5000	–	Cc1[nH]ncc1C1NCCN(c2ccnc(-c3cnc4ccc(C(F)(F)F)cn34)n2)C1C (centres unmarked) [I-321, 3-(4-(2-methyl-3-(5-methyl-1H-pyrazol-4-yl)piperazin-1-yl)pyrimidin-2-yl)-6-(trifluoromethyl)imidazo[1,2-a]pyridine]
10 to 100	< 500	–	CS(=O)(=O)NC1CC(C(F)(F)F)CN(c2ccnc(-c3cnc4ccc(C(F)F)cn34)n2)C1 (centres unmarked) [I-531, N-(1-(2-(6-(difluoromethyl)imidazo[1,2-a]pyridin-3-yl)pyrimidin-4-yl)-5-(trifluoromethyl)piperidin-3-yl)methanesulfonamide]
10 to 100	< 500	–	Cc1cc(-c2cnc3ccc(Cl)cn23)nc(N2C[C@@H](C)C[C@@H](c3cn[nH]c3)C2)n1 [I-208, 6-chloro-3-(6-methyl-2-((3S,5S)-3-methyl-5-(1H-pyrazol-4-yl)piperidin-1-yl)pyrimidin-4-yl)imidazo[1,2-a]pyridine]
–	500 to 5000	10 to 100	CC1CC(N=S(C)(C)=O)CN(c2ccnc(-c3cnc4ccc(C(F)(F)F)cn34)n2)C1 (centres unmarked) [I-31, Dimethyl((5-methyl-1-(2-(6-(trifluoromethyl)imidazo[1,2-a]pyridin-3-yl)pyrimidin-4-yl)piperidin-3-yl)imino)-λ^6-sulfanone]
–	500 to 5000	10 to 100	CC1CC(CS(C)(=N)=O)C(C)N(c2ccnc(-c3cnc4ccc(Cl)cn34)n2)C1 (centres unmarked) [I-46, ((1-(2-(6-Chloroimidazo[1,2-a]pyridin-3-yl)pyrimidin-4-yl)-2,5-dimethylpiperidin-3-yl)methyl)(imino)(methyl)-λ^6-sulfanone]
100 to 1000	500 to 5000	–	O=C(C1CC(F)(F)C1)N1CCN(c2ccnc(-c3cnc4ccc(C(F)(F)F)cn34)n2)CC1c1cn[nH]c1 (centres unmarked) [I-402, (2-(1H-pyrazol-4-yl)-4-(2-(6-(trifluoromethyl)imidazo[1,2-a]pyridin-3-yl)pyrimidin-4-yl)piperazin-1-yl)(3,3-difluorocyclobutyl)methanone]
–	500 to 5000	10 to 100	Cc1noc([C@@H]2CN(c3ccnc(-c4cnc5ccc(Cl)cn45)n3)C[C@H](C)O2)n1 [I-62]
10 to 100	< 500	–	Cc1cnc(N2C[C@H](C)C[C@@H](c3cn[nH]c3)C2)nc1-c1cnc2ccc(Cl)cn12 (stereo in doubt) [I-184, 6-chloro-3-(5-methyl-2-((3R,5S)-3-methyl-5-(1H-pyrazol-4-yl)piperidin-1-yl)pyrimidin-4-yl)imidazo[1,2-a]pyridine]
–	< 500	< 10	CC1CN(c2nccc(-c3cnc4ccc(C(F)(F)F)cn34)n2)C(C)C(c2cn[nH]c2)N1 (single isomer, unassigned) [I-34, 3-[2-[2,5-dimethyl-3-(1H-pyrazol-4-yl)piperazin-1-yl]pyrimidin-4-yl]-6-(trifluoromethyl)imidazo[1,2-a]pyridine]
< 10	500 to 5000	–	OCC(O)CN1CCN(c2ccnc(-c3cnc4ccc(C(F)(F)F)cn34)n2)CC1c1cn[nH]c1 (centres unmarked) [I-352, 3-(2-(1H-pyrazol-4-yl)-4-(2-(6-(trifluoromethyl)imidazo[1,2-a]pyridin-3-yl)pyrimidin-4-yl)piperazin-1-yl)propane-1,2-diol]
–	< 500	< 10	FC(F)(F)c1ccc2ncc(-c3ccnc(N4CCOC(c5cn[nH]c5)C4)n3)n2c1 (centres unmarked) [I-9, 2-(1H-Pyrazol-4-yl)-4-(4-(6-(trifluoromethyl)imidazo[1,2-a]pyridin-3-yl)pyrimidin-2-yl)morpholine]
10 to 100	500 to 5000	–	C[C@@H]1C[C@H](N=S(C)(C)=O)CN(c2ccnc(-c3cnc4ccc(C5CC5)cn34)n2)C1 [I-300, (((3 S,5R)-1-(2-(6-cyclopropylimidazo[1,2-a]pyridin-3-yl)pyrimidin-4-yl)-5-methylpiperidin-3-yl)imino)dimethyl-λ6-sulfanone]
100 to 1000	500 to 5000	–	CC(C)n1cc(C(=O)N2CCN(c3ccnc(-c4cnc5ccc(C(F)(F)F)cn45)n3)CC2c2cn[nH]c2)cn1 (centres unmarked) [I-391, (2-(1H-pyrazol-4-yl)-4-(2-(6-(trifluoromethyl)imidazo[1,2-a]pyridin-3-yl)pyrimidin-4-yl)piperazin-1-yl)(1-isopropyl-1H-pyrazol-4-yl)methanone]
